Results from PubChem BioAssay (NCI).
“And” between values parts separate entries of the source, which are not always exact repeats. Identical values can stand only once.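 Five concentrations, 48 hours, 96-well plates. Abbreviation: GI50, concentration required for 50% inhibition of growth. TGI marks complete inhibition of growth.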

Columns and labels:
Assay in all cases: DTP human tumour cell line panel, 48 h
[1] = system: SK-MEL-5 melanoma
[2] = system: PC-3 prostate
[3] = system: OVCAR-4 ovarian
[4] = system: SF-539 CNS
[5] = system: SK-MEL-2 melanoma
[6] = system: A549 NSCLC
[7] = system: MDA-MB-231 breast
[8] = system: TK-10 renal
[9] = system: HT29 colon
[10] = system: T-47D breast

Row | SMILES | GI50 [1] [µM] | TGI [1] | GI50 [2] [nM] | TGI [2] [nM] | GI50 [3] [µM] | TGI [3] | GI50 [4] [µM] | TGI [4] | GI50 [5] [µM] | TGI [5] | GI50 [6] [µM] | TGI [6] | GI50 [7] [nM] | TGI [7] [µM] | GI50 [8] [µM] | TGI [8] | GI50 [9] [µM] | TGI [9] | TGI [10] [µM] | GI50 [10] [µM]
1 | O=C(NNc1ccc(F)cc1)C1CCC(CNS(=O)(=O)c2ccc(Cl)c(Cl)c2)CC1 (configuration not stated) | 10.8 | 33.1 µM | 6300 | 39500 | 9.02 | 47 µM | 9.77 | 39.1 µM | > 50 | > 50 µM | 0.842 | 4.93 µM | 3170 | 25.4 | 1.74 | 16.4 µM |  |  |  | 
2 | CC(=O)[CH-]C(=O)c1ccccc1.CC(=O)[CH-]C(=O)c1ccccc1.CC[C@H](/C=C/C(C)[C@H]1CCC2[C@@H]3CC=C4C[C@@H]([O-])CC[C@]4(C)C3CC[C@@]21C)C(C)C.CC[O-].[Ti+4] (some centres not stated) | > 100 | > 100 µM |  |  | > 100 | > 100 µM | > 100 | > 100 µM | > 100 | > 100 µM | > 100 | > 100 µM |  |  | > 100 | > 100 µM | > 100 | > 100 µM |  | 
3 | CCOc1ccc2c(C)cc(=O)oc2c1 |  | > 100 µM |  | > 100000 |  | > 100 µM |  | > 100 µM |  | > 100 µM |  | > 100 µM |  | > 100 |  |  |  | > 100 µM | > 100 | 
4 | Cc1cc(=O)n2c3c(c4c(cc13)c(CO)cc(=O)n4C)OC2 |  | 75.3 µM |  |  |  | > 100 µM |  | 51.5 µM |  | 25.1 µM |  | > 100 µM |  |  |  | 62.4 µM |  | > 100 µM |  | 
5 | COC(=O)NN1C(C)=C(C(=O)OC)C2(C#N)C(C(=O)OC)=C(C)N(NC(=O)OC)C12N (configuration not stated) |  |  |  |  |  | > 100 µM |  | > 100 µM |  | > 100 µM |  | > 100 µM |  |  |  | > 100 µM |  | > 100 µM |  | 
6 | Cc1ccc(NC(=O)CC/C(CC(=O)C(C)(C)C)=N/NC(=O)C[N+](C)(C)C)cc1C |  | > 100 µM |  |  |  | > 100 µM |  | 44.8 µM |  | > 100 µM |  | 59.4 µM |  |  |  | > 100 µM |  | > 100 µM |  | 
7 | CCN(CC)CCOc1ccc(/C=C2\C[C@H]3[C@H]4CC=C5C[C@@H](O)CC[C@]5(C)[C@H]4CC[C@]3(C)[C@H]2O)cc1OC | 0.625 | 11.1 µM |  |  |  |  | 1.43 | 9.82 µM | 0.135 | > 50 µM | 10.7 | 25 µM | 6940 | 14.2 | 5.49 | 11.5 µM | 10.9 | > 50 µM | > 50 | 24.5
8 | Clc1nc(Cl)c2c3c(sc2n1)CCCC3 |  |  |  |  | 5.5 | > 100 µM | > 100 | > 100 µM |  | > 59.7 µM | > 24.4 | > 100 µM |  |  | 5.34 | > 100 µM | 3.67 | > 100 µM | > 100 | > 22.1
9 | C=C(C)C1CC=C(C)CC1 (configuration not stated) | > 100 | > 100 µM and 1560 µM |  |  | > 100 | > 100 µM and 2070 µM | > 100 | > 100 µM and 1690 µM | > 100 | > 100 µM and 1720 µM | > 100 | > 100 µM and 1790 µM |  |  | > 100 | > 100 µM and 1760 µM | > 100 | > 100 µM and 1730 µM |  | 
10 | COC(=O)C1=Cc2cc(OC)c(OC)cc2[C@H](c2ccc(OC)c(OC)c2)C1C(=O)OC (some centres not stated) |  | > 100 µM |  |  |  | > 100 µM |  | > 100 µM |  |  |  | > 100 µM |  |  |  | > 100 µM |  | > 100 µM |  | 
11 | COc1cccc(NC(=O)C(C)(C)C)c1SSc1c(NC(=O)C(C)(C)C)cccc1OC |  | > 100 µM |  |  |  | > 56.3 µM |  | 45.5 µM |  | > 100 µM |  | > 100 µM |  |  |  | > 100 µM |  | > 65.1 µM |  | 
12 | O=c1c2cccc(F)c2sc2c(N3CCNCC3)nc3ccccc3c12 | 1.69 | 3.08 µM | 1260 | 2700 | 1.64 | 3.08 µM | 1.71 | 3.11 µM | 1.76 | 3.46 µM | 0.89 | 2.71 µM | 1610 | 3.1 |  |  | 1.13 | 2.59 µM | 3.59 | 1.67
13 | NC1=NN(c2ccccc2)C(=O)C1/C(=N\NC(=O)c1cc2ccccc2cc1O)C(=O)Nc1cccc(C(F)(F)F)c1 (configuration not stated) |  | 51.8 µM |  |  |  | > 100 µM |  |  |  | 93.8 µM |  | > 100 µM |  |  |  | > 100 µM |  | > 100 µM |  | 
14 | Cn1c(=O)c2ccc(-c3ccc(Br)cc3)nc2n(C)c1=O |  | > 100 µM |  |  |  | > 100 µM |  | > 100 µM |  | > 100 µM |  | > 100 µM |  |  |  | > 100 µM |  | > 100 µM |  | 
15 | N#Cc1cc([N+](=O)[O-])ccc1NC(=O)C(F)(F)F |  | > 100 µM |  |  |  | > 100 µM |  | > 100 µM |  | > 100 µM |  | > 100 µM |  |  |  | > 100 µM |  | > 67.6 µM |  | 
16 | COC(=O)C[CH2][Ge]([CH3])([CH3])[S]c1ccccc1 | 32.6 | > 100 µM |  |  | 25.3 | > 100 µM | 21.1 | 39.8 µM | 27.4 | 71.8 µM | 30.6 | > 100 µM |  |  | 55.7 | > 100 µM | 44.2 | > 100 µM |  | 
17 | NCCCn1c2c(c3ccc([N+](=O)[O-])cc3c1=O)C(=O)c1cc(-c3ccccc3)ccc1-2 | 1.31 | 2.62 µM | 1350 | 2710 | 0.399 | 1.62 µM | 1.37 | 2.84 µM | 0.438 | 1.27 µM | 0.237 | 0.552 µM | 1290 | 2.85 |  |  | 0.19 | 0.368 µM |  | 
18 | CSc1nc2c(nc(N)n2C2OC(COC(C)=O)C(OC(C)=O)C(OC(C)=O)C2OC(C)=O)c(=O)n1C (configuration not stated) |  | > 100 µM |  |  |  | > 100 µM |  | > 100 µM |  | > 100 µM |  | > 100 µM |  |  |  | > 100 µM |  | > 100 µM |  | 
19 | CC(=O)[CH-]C(=O)c1ccccc1.CC(=O)[CH-]C(=O)c1ccccc1.CC1(C)OCC(C2OC3OC(C)(C)OC3C2[O-])O1.CC1(C)OCC(C2OC3OC(C)(C)OC3C2[O-])O1.[Ti+4] (configuration not stated) |  |  |  |  | 20.4 | 68.4 µM | 13.6 | 28 µM | 7.49 | 25.5 µM | 15.3 | 38 µM |  |  | 34.1 | > 100 µM | 16.3 | 40.6 µM |  | 
